Laboratory results from ChEMBL document CHEMBL1153330, “Biochemical basis for differences in metabolism-dependent genotoxicity by two diazinylpiperazine-based 5-HT2C receptor agonists” (Bioorg Med Chem Lett, 2009).

Assays:
Salmonella typhimurium [1] = assay: Toxic mutagenic effect in Salmonella Typhimurium TA100 assessed as increase in reverse mutants at 0.63 mg/plate segment in presence of liver S9 fraction and NADPH by reverse mutation assay relative to untreated control; assay type: toxicity, organism-based; conditions: salmonella enterica subsp. enterica serovar typhimurium
Salmonella typhimurium [2] = assay: Toxic mutagenic effect in Salmonella Typhimurium TA1537 assessed as increase in reverse mutants at 0.63 mg/plate segment in presence of liver S9 fraction and NADPH by reverse mutation assay relative to untreated control; assay type: toxicity, organism-based; conditions: salmonella enterica subsp. enterica serovar typhimurium
[3] = Metabolic stability in aroclor 1254-induced rat liver S9 fraction at 1 uM in presence of NADPH; assay type: ADME, subcellular
[4] = Metabolic stability in human liver microsomes; assay type: ADME, Microsome
[5] = Metabolic stability in human liver microsomes in presence of CYP3A4 inhibitor ketoconazole; assay type: ADME, Microsome; conditions: with ketoconazole (CYP3A4 inhibitor), concentration not stated
[6] = Metabolic stability in human liver microsomes in presence of CYP1A2 inhibitor furafylline; assay type: ADME, Microsome; conditions: with furafylline (CYP1A2 inhibitor), concentration not stated
Cytochrome P450 3A4 = Cytochrome P450 3A4 (Homo sapiens, UniProt P08684); assay: Inhibition of CYP3A4 in human liver microsomes; assay type: ADME, Microsome
Sequence of Cytochrome P450 3A4 (P08684 whole entry): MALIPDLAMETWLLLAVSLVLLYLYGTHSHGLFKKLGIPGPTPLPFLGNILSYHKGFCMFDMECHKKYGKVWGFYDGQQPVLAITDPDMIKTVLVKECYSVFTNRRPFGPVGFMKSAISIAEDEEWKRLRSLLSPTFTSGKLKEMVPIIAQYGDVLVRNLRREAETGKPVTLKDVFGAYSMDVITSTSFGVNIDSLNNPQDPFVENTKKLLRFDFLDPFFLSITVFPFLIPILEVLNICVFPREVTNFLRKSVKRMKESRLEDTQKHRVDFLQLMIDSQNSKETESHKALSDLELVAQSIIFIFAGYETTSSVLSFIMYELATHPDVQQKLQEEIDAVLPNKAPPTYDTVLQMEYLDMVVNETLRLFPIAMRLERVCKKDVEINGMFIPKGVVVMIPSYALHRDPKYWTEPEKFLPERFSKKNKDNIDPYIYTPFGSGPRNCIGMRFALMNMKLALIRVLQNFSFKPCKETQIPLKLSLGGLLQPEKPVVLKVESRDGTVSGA

Salmonella typhimurium [7] = assay: Toxic mutagenic effect in Salmonella Typhimurium TA1535 assessed as increase in reverse mutants at 5 mg/plate segment after 72 hrs at 37 degC by reverse mutation assay relative to untreated control; assay type: toxicity, organism-based; conditions: salmonella enterica subsp. enterica serovar typhimurium
Salmonella typhimurium [8] = assay: Toxic mutagenic effect in Salmonella Typhimurium TA100 assessed as increase in reverse mutants at 5 mg/plate segment after 72 hrs at 37 degC by reverse mutation assay relative to untreated control; assay type: toxicity, organism-based; conditions: salmonella enterica subsp. enterica serovar typhimurium
Salmonella typhimurium [9] = assay: Toxic mutagenic effect in Salmonella Typhimurium TA98 assessed as increase in reverse mutants at 5 mg/plate segment after 72 hrs at 37 degC by reverse mutation assay relative to untreated control; assay type: toxicity, organism-based; conditions: salmonella enterica subsp. enterica serovar typhimurium
Salmonella typhimurium [10] = assay: Toxic mutagenic effect in Salmonella Typhimurium TA1537 assessed as increase in reverse mutants at 5 mg/plate segment after 72 hrs at 37 degC by reverse mutation assay relative to untreated control; assay type: toxicity, organism-based; conditions: salmonella enterica subsp. enterica serovar typhimurium
Salmonella typhimurium [11] = assay: Toxic mutagenic effect in Salmonella Typhimurium TA1535 assessed as increase in reverse mutants at 5 mg/plate segment after 72 hrs at 37 degC in presence of aroclor 1254-induced rat liver S9 fraction by reverse mutation assay relative to untreated control; assay type: toxicity, organism-based; conditions: salmonella enterica subsp. enterica serovar typhimurium, s9, 72 h
Salmonella typhimurium [12] = assay: Toxic mutagenic effect in Salmonella Typhimurium TA98 assessed as increase in reverse mutants at 5 mg/plate segment after 72 hrs at 37 degC in presence of aroclor 1254-induced rat liver S9 fraction by reverse mutation assay relative to untreated control; assay type: toxicity, organism-based; conditions: salmonella enterica subsp. enterica serovar typhimurium, s9, 72 h
Salmonella typhimurium [13] = assay: Toxic mutagenic effect in Salmonella Typhimurium TA1537 assessed as increase in reverse mutants at 5 mg/plate segment after 72 hrs at 37 degC in presence of aroclor 1254-induced rat liver S9 fraction by reverse mutation assay relative to untreated control; assay type: toxicity, organism-based; conditions: salmonella enterica subsp. enterica serovar typhimurium, s9, 72 h
Cytochrome P450 1A2 = biological target: T1, Cytochrome P450 1A2 (Homo sapiens, UniProt P05177); assay: Inhibition of CYP1A2 in human liver microsomes; assay type: ADME, Microsome
T1 sequence (P05177 whole entry): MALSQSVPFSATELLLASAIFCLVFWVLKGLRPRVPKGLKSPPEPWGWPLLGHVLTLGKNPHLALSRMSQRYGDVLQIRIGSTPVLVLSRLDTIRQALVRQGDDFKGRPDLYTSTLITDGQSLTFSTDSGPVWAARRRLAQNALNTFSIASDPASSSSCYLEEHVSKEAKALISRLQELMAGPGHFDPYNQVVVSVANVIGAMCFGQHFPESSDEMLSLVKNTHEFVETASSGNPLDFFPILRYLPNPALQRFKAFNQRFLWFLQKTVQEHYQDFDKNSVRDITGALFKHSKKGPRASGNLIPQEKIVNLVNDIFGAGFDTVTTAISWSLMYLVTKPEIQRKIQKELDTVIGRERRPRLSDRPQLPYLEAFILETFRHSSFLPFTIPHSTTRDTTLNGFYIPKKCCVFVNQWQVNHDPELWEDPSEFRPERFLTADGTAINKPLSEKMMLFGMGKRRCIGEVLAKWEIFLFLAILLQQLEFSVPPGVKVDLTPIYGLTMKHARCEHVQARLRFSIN

Row | Compound | fold change (FC) (Salmonella typhimurium [1]) | fold change (FC) (Salmonella typhimurium [2]) | half-life at 1 µM [3] [min] | half-life [4] [min] | half-life [5] [min] | half-life [6] [min] | IC50 (Cytochrome P450 3A4) [µM] | Activity (Salmonella typhimurium [7]) | fold change (FC) (Salmonella typhimurium [8]) | Activity (Salmonella typhimurium [9]) | Activity (Salmonella typhimurium [10]) | Activity (Salmonella typhimurium [11]) | Activity (Salmonella typhimurium [12]) | Activity (Salmonella typhimurium [13]) | IC50 (Cytochrome P450 1A2) [nM]
1 | Clc1cccc(COc2cncc(N3CCNCC3)n2)c1 | 3 | 3 | 4 | 8 | > 90 | 40 | > 50 |  |  |  |  |  |  |  | 
2 | C[C@H](Cc1cccc(F)c1)Oc1nc(N2CCNC[C@H]2C)ncc1F |  |  | 13 | 20 | > 90 | 40 | 4.9 | Non-toxic | 1.34 | Non-toxic | Non-toxic | Non-toxic | Non-toxic | Non-toxic | 400
